The values below are quoted from earlier work in patent US12486292B2, “Prodrug platform useful to deliver amines, amides and phenols” (Changchun Changcheng Pharmaceutical Technology Co., LTD, priority 2019, dated 2025).

For the series the following is noted: phase I human clinical trials, oral dosing.

Consider `CCCC(CCC)C(=O)Nc1ccn([C@@H]2O[C@H](CO)[C@@H](O)C2(F)F)c(=O)n1` [LY2334737], for which the Hepatotoxicity result is recorded as “observed in some patients”.
